Measured values from patent US20250154548A1, “CONTROL OF ENZYMATIC NUCLEIC ACID SYNTHESIS VIA ELECTROCHEMICAL MEANS” (The Charles Stark Draper Laboratory, Inc., priority 2023, published 2025).

Tests used:
[1] = biological target: T1, TdT-dNTP conjugates (C7-C) (Mus musculus, UniProt P09838, C155A/C188A/C216N/C302P/C378E/C404A/C438A/D179A/D325G/D356E/D411H/D441E/D501E/E183G/E226Q/E418G/E487R/F267Y/F368W/G227E/G413Q/H416D/I229L/K247Q/K250C/K276D/L167K/L260P/L327T/L381Q/M192R/M313Q/M339K/M471L/N304T/Q166K/Q278R/Q287R/Q359K/Q371K/Q390L/R483N/S195A/S223R/S248A/S275E/S282T/S312E/T321Q/T465R/V311I/V320W/V484T); test: Bead-based TdT extension assay; assay type: biochemical; settings: for inhibition of TdT extension: various chelator concentrations
T1 construct: nucleotide (dNTP) covalently tethered through a cleavable linker; That it is dCTP and sits on Cys102 is my inference from the name C7-C and from K102C
Method: Extension assay was performed for 2 minutes at 37° C.
The ability of chelators to inhibit stepwise addition of nucleotides via TdT-dNTP conjugates was tested using a bead based assay: Magnetic beads (Dynabeads MyOne streptavidin beads (C1)) were functionalized with biotinylated, double-stranded DNA (dsDNA) that contains a 3′ 30-base overhang, which serves as the seed oligo for extension. Beads were prepared in buffer (20 mM potassium phosphate, 100 mM NaCl, pH 6.5) and washed with 3 times with Superblock prior to use. TdT-dNTP conjugates were prepared at 10 μM concentrations in buffer solution (20 mM potassium phosphate buffer, 100 mM NaCl, pH 6.5). Chelators and MnCl2 solutions were prepared at appropriate ratios (in water) so that final reaction concentrations were at 125 nM in MnCl2 and incubated for 10 minutes at room temperature. Once incubation was complete, TdT-dNTP conjugates were added to the chelator/MnCl2 solutions so that TdT-dNTP conjugates were at a final concentration of 5 μM. As controls, solutions with no chelator or with TCEP (for recovery activity) were also prepared.
Once all reagents were prepared, ds-DNA functionalized beads (10 μL volume) were added to low-bind Eppendorf tubes, followed by the TdT-dNTP conjugate/chelator/MnCl2 solution (50 μL total reaction volume). The tubes were incubated at 37° C. for 2 min, then tubes were placed on ice for 1 min. The beads were washed by placing tubes on a magnetic tube rack three times with 1 mL of buffer (20 mM potassium phosphate, 100 mM NaCl, pH 6.5). To elute the ssDNA from the washed beads, the tubes were placed in the magnetic rack, and the supernatant was removed and replaced with 0.1 M NaOH (aq). After thorough mixing with a pipette and re-settling of the beads using the magnetic rack, the supernatant was transferred to a fresh low-bind tube, and 50 μL of 0.1 M HCl (aq) was added to neutralize the solution.
Sequencing sample preparation began with polyadenylation (for sequences expected to end in thymine, cytosine, or guanine) or the addition of a poly(T) tail (for sequences expected to end in adenine) to the 3′ end of each DNA sample using commercial TdT. The samples were then amplified using primers that bind to a conserved 5′ sequence and the complementary 3′ tail while incorporating Illumina sequencing priming sites into the synthesized amplicons. This step was performed using qPCR in order to achieve optimal amplification of all samples regardless of input DNA concentration. A portion of each PCR product was analyzed by gel electrophoresis to confirm the size and relative abundance of the amplicons. The products of all samples were then normalized based on relative abundance and used as template for a second PCR reaction, which incorporated Illumina flow cell adaptors and a variable index into each sample. The products of the final PCR reaction were characterized by gel electrophoresis and all indexed samples were pooled together proportionally based on relative abundance. Size selection and purification of the pooled library was performed by DNA gel extraction and the final library was analyzed by Qubit dsDNA HS assay and Tapestation D1000 screentape to determine the final molar concentration. The library was then diluted, denatured and sequenced following standard Illumina protocols.

[2] = FLPA fluorescence intensity versus bulk electrolyte pH calibration; assay type: physicochemical; settings: from fluorescence intensity vs pH
Text: FIGS. 3A-C show how voltage-induced pH change can be visualized in real-time with a freely diffusing non-electroactive fluorescent probe. […] A large Pt counter electrode (CE, anode) surrounds a smaller Pt working electrode (WE, cathode). The two electrodes are separated by a 10 μm dielectric SiO2 region. The WE (410 μm×510 μm) contains a microarray of 300-nm diameter wells that cannot be optically resolved but appear as a smaller square region (˜250 μm×325 μm), made brighter by optical interference. The microarray is used as the region of interest (ROI) for all subsequent analysis. Images were acquired with an Excelitas X-Cite Xylis XT720S (360-720 nm LED) source, 1s exposure time, and GFP (525/50 nm) filter set.
Data points represent the average of three technical replicates, and error bars represent one standard deviation. The intensity follows a sigmoidal relationship as the fraction of deprotonated, fluorescent FLPA (inset) increases with pH (pKa˜6.5). Thus, FLPA is sensitive to an acid-OFF/neutral-ON pH switch over pH 5 to 8. The visualization strategy is amenable to other non-electroactive probes with different pKa values.

[3] = biological target: wild-type TdT (Mus musculus, UniProt P09838); test: TdT extension assay with DNA-intercalating dye (SYTO 13); assay type: biochemical; settings: metal cofactor MnCl2 pre-incubated with chelator; free nucleotides, ssDNA oligomer
Method: FIG. 14 provides data from an extension assay wherein wild-type TdT is incubated with a single-stranded DNA oligomer in the presence of free nucleotides and a DNA-intercalating dye (SYTO 13). As DNA synthesis occurs, fluorescent signal increases as more interactions of the intercalating dye with the ssDNA leads to higher fluorescent signal.

[4] = 5 μM C7-C, 0.250 mM Mn2+, 2 minutes at 37° C.

wild-type TdT, sequence (P09838 149-510): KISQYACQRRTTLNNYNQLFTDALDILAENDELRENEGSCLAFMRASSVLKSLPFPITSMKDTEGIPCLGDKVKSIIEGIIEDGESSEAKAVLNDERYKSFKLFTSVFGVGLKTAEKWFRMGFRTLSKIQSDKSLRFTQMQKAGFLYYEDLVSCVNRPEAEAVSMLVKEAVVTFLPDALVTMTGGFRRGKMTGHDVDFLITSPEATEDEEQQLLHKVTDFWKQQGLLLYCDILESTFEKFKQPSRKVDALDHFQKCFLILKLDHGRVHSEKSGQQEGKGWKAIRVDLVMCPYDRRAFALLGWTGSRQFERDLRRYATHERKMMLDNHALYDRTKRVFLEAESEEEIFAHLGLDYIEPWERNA
T1 sequence (P09838 149-510 with the stated changes): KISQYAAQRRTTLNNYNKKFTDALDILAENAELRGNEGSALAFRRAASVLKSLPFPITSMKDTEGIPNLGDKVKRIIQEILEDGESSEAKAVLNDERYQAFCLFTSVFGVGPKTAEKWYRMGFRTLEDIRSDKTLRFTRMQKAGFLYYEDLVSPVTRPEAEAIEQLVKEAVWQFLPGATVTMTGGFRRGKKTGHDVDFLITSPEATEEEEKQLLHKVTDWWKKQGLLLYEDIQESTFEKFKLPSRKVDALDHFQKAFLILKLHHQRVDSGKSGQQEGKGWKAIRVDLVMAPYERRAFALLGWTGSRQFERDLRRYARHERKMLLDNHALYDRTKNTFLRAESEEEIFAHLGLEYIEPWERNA

pKa [2] | SMILES | inhibition of TdT extension [1, 4] | assayed ssDNA growth (fluorescent signal) [3] | fraction of extended sequences ([1]; various chelator:metal ratios, 5 μM C7-C, 0.250 mM Mn2+, 2 minutes at 37° C.) | TdT activity with chelator pre-incubated with reducing agent TCEP ([1]; TCEP reducing agent added, chelator cleaved)
– | c1ccc(SSc2ccccn2)nc1 [DTP, 2,2′-dithiopyridine, reference compound] | inhibition dependence on feed ratio of metal to inhibitor | – | – | –
~6.5 | NCCOCCOCCOCCOCCOCCOCCNC(=S)Nc1ccc2c(c1)C(=O)OC21c2ccc(O)cc2Oc2cc(O)ccc21 [FLPA, fluorescein-PEG6-amine] | – | – | – | –
– | O=C(O)CN(CC(=O)O)C(=O)OCCSSCCOC(=O)N(CC(=O)O)CC(=O)O [tetraacid 2, 3,14-bis(carboxymethyl)-4,13-dioxo-5,12-dioxa-8,9-dithia-3,14-diazahexadecanedioic acid] | inhibition dependence on feed ratio of metal to inhibitor and choice of chelator | no assayed ssDNA growth is observed | – | –
– | O=C(O)CN(CCN(CC(=O)O)CC(=O)O)CC(=O)O [EDTA, Ethylenediaminetetraacetic Acid, reference compound] | – | little-to-no-assayed ssDNA growth | markedly decreased | –
– | O=C(NCCc1ccc(O)c(O)c1)OCCSSCCOC(=O)NCCc1ccc(O)c(O)c1 [catechol 1, disulfanediylbis(ethane-2,1-diyl) bis((3,4-dihydroxyphenethyl)carbamate)] | inhibition dependence on feed ratio of metal to inhibitor and choice of chelator | no assayed ssDNA growth is observed | – | TdT activity is recovered
